Test results as given in patent US9629830B2, “EphA4 inhibitors as neuroprotective agents” (The Hong Kong University of Science and Technology, priority 2013, dated 2017).
Entries after “also recorded” stand apart in the source; their conditions may differ.

Legend:
[1] = target: T1, extracellular domain of EphA4 (Homo sapiens, UniProt P54764); assay: In vitro pull-down of recombinant EphA4-Fc with biotinylated Rhy on streptavidin beads; assay type: binding; conditions: western blot
T1 construct: purchased R&D Systems
T1 sequence (P54764 20-547 limits assumed): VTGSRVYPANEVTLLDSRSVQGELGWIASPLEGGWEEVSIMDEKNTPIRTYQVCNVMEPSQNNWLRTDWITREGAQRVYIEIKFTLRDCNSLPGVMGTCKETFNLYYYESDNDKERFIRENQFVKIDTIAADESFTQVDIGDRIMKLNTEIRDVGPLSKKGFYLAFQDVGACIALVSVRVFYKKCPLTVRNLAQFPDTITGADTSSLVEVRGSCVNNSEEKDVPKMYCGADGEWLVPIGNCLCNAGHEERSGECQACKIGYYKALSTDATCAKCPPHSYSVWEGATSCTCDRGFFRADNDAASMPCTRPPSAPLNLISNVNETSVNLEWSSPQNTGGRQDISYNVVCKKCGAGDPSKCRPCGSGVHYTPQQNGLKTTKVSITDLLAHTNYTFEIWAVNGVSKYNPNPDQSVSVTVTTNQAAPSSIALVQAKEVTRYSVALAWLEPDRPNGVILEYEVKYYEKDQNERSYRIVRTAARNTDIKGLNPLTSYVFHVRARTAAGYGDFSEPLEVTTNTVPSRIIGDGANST
Protocol: For the pull-down analysis, Bio-Rhy was bound to streptavidin magnetic beads for 1 h, the beads was then incubated with recombinant EphA4-Fc or EphB2-Fc in the presence of 0.5% BSA for 1 h. After incubation, the beads were washed 4 times with DPBS and the presence of Eph in the complex was determined by western blot analysis.

[2] = tested on: EphA4-dependent growth cone collapse in hippocampal neurons; assay: EphA4-dependent (ephrin-A1-stimulated) growth cone collapse assay; assay type: cell-based, rat; conditions: for ephrin-A1-stimulated growth cone collapse: cultured hippocampal neurons
Protocol: Ephrin-A1-Fc was pre-clustered with goat anti-human Fc antibody (1:4.5)^24 and incubated at room temperature for 60 min before use. The growth cone collapse assay was performed in hippocampal neurons with ephrin-A1 0.1 μg/mL as described previously^61.
(§1) For EphA4 clustering, neurons were stained with anti-EphA4 and anti-Tau-1 antibodies. For the growth cone collapse assay, neurons were stained with Alexa Fluor 555-conjugated phalloidin (Molecular Probes) for filamentous actin and anti-Tau-1 antibody for axons. Collapsed growth cones were scored in a double-blinded manner. The experiments were repeated at least 3 times, and >50 neurons were analyzed for each experiment. Data are presented as mean±SEM.
To screen for small molecule EphA4 inhibitors, the inventors performed a molecular docking analysis using a small molecule library. […] Their ability in inhibiting EphA4 inhibiting the EphA4-dependent growth cone collapse using cultured hippocampal neurons was performed.

[3] = tested on: Aβ-induced reduction of neurotransmission in hippocampal neurons; assay: mEPSC recording in Aβ-treated cultured hippocampal neurons; assay type: cell-based, rat
Protocol: Primary cortical and hippocampal neurons were prepared from embryonic day 18-19 rat embryos as described previously^24. Briefly, cortical neurons (6×10^6 per plate) were plated on 100-mm culture dishes coated with poly-D-lysine (12.5 μg/mL; Sigma). Rat hippocampal neurons were seeded on 18-mm coverslips coated with poly-D-lysine (50 μg/mL) at a density of 0.5×10^5/18-mm coverslip for immunocytochemical analysis, 0.1×10^5/18-mm coverslip for growth cone collapse assay, or 1×10^5 or 1.5×10^5/18-mm coverslip for mEPSC recording. Neurons were fed Neurobasal medium (Invitrogen) supplemented with 2% B27 (Invitrogen). Acute brain slices were prepared from P15-P17 Sprague-Dawley rats. Briefly, the rats were rapidly decapitated, and their brains were immersed in ice-cold artificial cerebrospinal fluid (ACSF). The hippocampus was dissected, and 300-μm-thick slices were prepared using a vibratome (Lieca). The slices were then transferred into an incubating chamber containing circulating ACSF equilibrated with 95% O2+5% CO2 and held at room temperature for at least 2 h for recovery prior to experiments^65.
For miniature EPSC recordings, hippocampal neurons at ˜25-28 DIV were co-treated with or without 500 nM Aβ together with the testing reagents for 24 h. Whole-cell patch-clamp recordings were made at room temperature with external solution containing (in mM) 110 NaCl, 5 KCl, 2 CaCl2, 0.8 MgCl2, 10 HEPES, and 10 D-glucose (pH 7.4) as well as an internal solution containing (in mM) 135 CsCl2, 10 HEPES, 2 MgCl2, 4 NaATP, 0.4 NaGTP, and 0.5 EGTA (pH 7.2)^24,27. Picrotoxin ([…]) was included in the external solution to block GABAergic IPSCs along with 0.5 μM TTX to prevent action potential-evoked EPSCs. For miniature EPSC recordings, cells were held at −70 mV. The pipette resistances for these experiments were typically 3-5 MΩ, while series resistances were 15-20 MΩ. The minis from each cell was recorded for 1 min in each condition. The measurement of mEPSC was according to that described in Mini Analysis Program for measuring AMPA receptor EPSCs (Synaptosoft Inc.). Only recording epochs in which series and input resistances varied <10% were analyzed. Data are presented as the mean±SEM of at least 3 experiments.

EphA4 = target: T2, EphA4 (Rattus norvegicus, UniProt D3ZZK3); assay: Ephrin-A1-induced EphA4 cluster assay in cultured hippocampal neurons; assay type: cell-based; conditions: for potency as EphA4 inhibitor: same assay system, no data given
T2 construct: endogenous in cells; host or cells: primary rat cortical neurons (A5), primary rat hippocampal neurons (A7)
T2 sequence (D3ZZK3 20-986): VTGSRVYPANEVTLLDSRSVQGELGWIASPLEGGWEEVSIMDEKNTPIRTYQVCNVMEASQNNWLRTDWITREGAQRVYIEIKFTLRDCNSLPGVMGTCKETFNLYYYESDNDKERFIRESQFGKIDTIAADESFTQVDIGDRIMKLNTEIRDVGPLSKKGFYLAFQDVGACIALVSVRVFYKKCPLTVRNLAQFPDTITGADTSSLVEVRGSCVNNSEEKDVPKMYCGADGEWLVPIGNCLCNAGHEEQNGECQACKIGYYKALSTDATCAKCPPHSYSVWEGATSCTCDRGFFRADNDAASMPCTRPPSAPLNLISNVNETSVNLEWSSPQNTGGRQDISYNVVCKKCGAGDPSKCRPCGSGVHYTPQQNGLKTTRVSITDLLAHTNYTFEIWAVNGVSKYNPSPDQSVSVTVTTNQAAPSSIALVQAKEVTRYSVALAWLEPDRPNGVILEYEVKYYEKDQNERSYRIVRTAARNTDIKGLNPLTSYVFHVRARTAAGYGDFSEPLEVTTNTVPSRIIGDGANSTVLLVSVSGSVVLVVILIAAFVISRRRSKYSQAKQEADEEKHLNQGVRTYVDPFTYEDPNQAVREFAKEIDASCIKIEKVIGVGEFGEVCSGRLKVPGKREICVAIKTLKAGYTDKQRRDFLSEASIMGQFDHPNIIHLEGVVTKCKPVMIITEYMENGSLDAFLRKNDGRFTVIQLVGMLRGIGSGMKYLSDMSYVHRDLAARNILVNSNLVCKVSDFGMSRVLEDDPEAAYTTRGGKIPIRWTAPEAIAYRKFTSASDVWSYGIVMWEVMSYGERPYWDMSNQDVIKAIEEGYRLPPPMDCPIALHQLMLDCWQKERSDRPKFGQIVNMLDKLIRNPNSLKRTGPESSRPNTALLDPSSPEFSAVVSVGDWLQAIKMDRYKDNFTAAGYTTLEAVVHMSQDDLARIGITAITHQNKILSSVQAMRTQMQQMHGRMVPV
Protocol: as §1
Rat hippocampal neurons were seeded on 48-well plates coated with poly-D-lysine (50 μg/mL) at 6000 cells per well. Neurons were incubated with Neurobasal medium (Invitrogen) supplemented with 2% B27 (Invitrogen). […] Neurons were then immunostained with anti-EphA4 and anti-Tau-1 antibodies. The cellular imaging and quantification of EphA4 clusters was performed using IN Cell Analyzer 6000 high content assay system (GE Healthcare). EphA4 clusters were quantified by calculating the proportion of total area of EphA4 clusters on axons against Tau positive area. Statistical analysis was performed with one-way ANOVA followed by Newman-Keuls Multiple Comparison Test (Prism 5 GraphPad Software).

[4] = inhibitor (Cpd1 500 μM, Ros 10 μM) + Aβ, Aβ alone 818.1±28.2 ms
[5] = inhibitor alone (Cpd1 500 μM, Ros 10 μM), control 454.1±12.5 ms

In the case of CCC1CN2CCC3(C(=O)N(CCCCCCNC(=O)CCCCC4SCC5NC(=O)NC54)c4ccccc43)C2CC1C(=COC)C(=O)OC (stereo not drawn) [Bio-Rhy], the “binding to the extracellular domain of EphA4 (pull-down, words)” value [1] was “bound specifically to the extracellular domain of EphA4”.
In the case of Cc1ccc(C)n1-c1ccc(C(=O)O)c(O)c1 [Cpd1, 2-hydroxy-4-(2,5-dimethyl-1-pyrrolyl)benzoic acid, reference compound], the “ephrin-A1-stimulated growth cone collapse” value [2] was “also inhibited ephrin-A1-stimulated growth cone collapse”, the “concentration at which ephrin-A1-stimulated growth cone collapse is inhibited” value ([2]; data not shown) was “exceeding 10 μM” and the mEPSC inter-event interval [3, 4] was 542.6 ± 15.4 ms. The mEPSC inter-event interval [3, 5] was 559.5 ± 16.6 ms.
In the case of CC(C)[C@@H]1[C@H]2OC(=O)[C@@H]1[C@@H]1CC[C@@H]3CN(C)[C@H]2[C@@]31C [Dendrobine, dendrobine], the “ephrin-A1-stimulated growth cone collapse” value [2] was “inhibited ephrin-A1-stimulated growth cone collapse”.
In the case of CC[C@H]1CN2CC[C@]3(C(=O)N(CCCCCCCCOC(=O)c4ccc(OC)c(OC)c4)c4ccccc43)[C@@H]2C[C@@H]1/C(=C\OC)C(=O)OC [RHY-36], the “potency on EphA4 inhibition (EphA4 clusters) compared to Rhy (words)” value (EphA4; 50 μM) was “more potent activity than Rhy; also recorded: more potent effect on EphA4 inhibition than Rhy”.
In the case of CC[C@H]1CN2CC[C@]3(C(=O)N(CCCCCBr)c4ccccc43)[C@@H]2C[C@@H]1/C(=C\OC)C(=O)OC [RHY-23], the “potency on EphA4 inhibition (EphA4 clusters) compared to Rhy (words)” value (EphA4; 30 μM) was “higher potency on EphA4 inhibition”.
In the case of CCC1CN2CCC3(C(=O)N(CCCCCCCCCCCl)c4ccccc43)C2CC1C(=COC)C(=O)OC (stereo not drawn) [RHY-65], the “potency as EphA4 inhibitor” value (EphA4) was “tested and verified”.
For CCC1CN2CCC3(C(=O)N(CCCCCCCCNCCN4CCCC4)c4ccccc43)C2CC1C(=COC)C(=O)OC (stereo not drawn) [RHY-53], the “potency as EphA4 inhibitor” value (EphA4) was “tested and verified”.
Compound CC[C@H](CO)Nc1nc(NCc2ccccc2)c2ncn(C(C)C)c2n1 [Ros, roscovitine] has a mEPSC inter-event interval [3, 4] of 494.1 ± 11.7 ms and a mEPSC inter-event interval [3, 5] of 451.0 ± 11.2 ms.
In the case of CCC1CN2CCC3(C(=O)N(CCCCCCCNCCCn4ccnc4)c4ccccc43)C2CC1C(=COC)C(=O)OC (stereo not drawn) [RHY-47], the “potency on EphA4 inhibition (EphA4 clusters) compared to Rhy (words)” value (EphA4; 50 μM) was “higher potency on EphA4 inhibition”.
With CCC1CN2CCC3(C(=O)N(CCCCCCOC(=O)c4ccc(OC)c(OC)c4)c4ccccc43)C2CC1C(=COC)C(=O)OC (stereo not drawn) [RHY-33] the “potency on EphA4 inhibition (EphA4 clusters) compared to Rhy (words)” value (EphA4; 50 μM) was “comparable potency as Rhy”.
With CCC1CN2CCC3(C(=O)N(CCCCCCCOc4ccc(OCc5ccccc5)cc4)c4ccccc43)C2CC1C(=COC)C(=O)OC (stereo not drawn) [RHY-44] the “potency on EphA4 inhibition (EphA4 clusters) compared to Rhy (words)” value (EphA4; 30 μM) was “higher potency on EphA4 inhibition”.
CC[C@H]1CN2CC[C@]3(C(=O)N(CCCCCCCCCl)c4ccccc43)[C@@H]2C[C@@H]1/C(=C\OC)C(=O)OC [RHY-26] was tested, and the “reduction of ephrin-A1-induced EphA4 clustering” value (EphA4; 30 μM, 20 min pretreatment, then ephrin-A1 40 min, some sentences add 'when compared to Rhy') was ~80% and the “inhibitory effect on EphA4 clusters (potency) compared to Rhy” value (EphA4; dose-dependent experiment, FIG. 17) was 5 fold.
With CCC1CN2CCC3(C(=O)N(CCCCCCCCl)c4ccccc43)C2CC1C(=COC)C(=O)OC (stereo not drawn) [RHY-64] the “potency as EphA4 inhibitor” value (EphA4) was “tested and verified”.
